Ki data for one compound are collected here from patent publication US7893256B2, “Azabicycloalkane compounds” (Theravance, Inc., priority 2003, dated 2011).

The target in this assay is T1, hM2 receptor (Homo sapiens, UniProt P08172).
T1 construct: expressed in transfected cells; host or cells: CHO-K1 cells
T1 sequence (P08172 1-466): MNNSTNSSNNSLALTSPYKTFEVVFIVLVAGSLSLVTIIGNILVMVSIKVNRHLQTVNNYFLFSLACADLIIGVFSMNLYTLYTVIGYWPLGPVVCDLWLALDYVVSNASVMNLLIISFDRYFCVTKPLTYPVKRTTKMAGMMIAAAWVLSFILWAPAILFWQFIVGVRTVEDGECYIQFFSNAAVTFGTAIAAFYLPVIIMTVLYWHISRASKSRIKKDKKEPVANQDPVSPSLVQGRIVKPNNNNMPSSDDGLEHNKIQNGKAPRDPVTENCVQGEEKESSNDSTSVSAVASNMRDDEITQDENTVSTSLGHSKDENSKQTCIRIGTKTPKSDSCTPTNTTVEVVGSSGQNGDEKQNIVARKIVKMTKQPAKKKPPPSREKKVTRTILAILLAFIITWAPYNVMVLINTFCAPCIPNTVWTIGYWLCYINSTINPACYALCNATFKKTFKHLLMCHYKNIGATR
Kind of assay: Blockade of agonist-mediated inhibition of cAMP accumulation (Assay Test Procedure D, A). It counts as cell-based. The settings on record: CHO-K1 cells expressing the hM2 receptor; read-out: Ki value for blockade of oxotremorine-inhibition of forskolin-mediated cAMP accumulation. As to the method:
In this assay, the functional potency of a test compound was determined by measuring the ability of the test compound to block oxotremorine-inhibition of forskolin-mediated cAMP accumulation in CHO-K1 cells expressing the hM2 receptor. cAMP assays were performed in a radioimmunoassay format using the Flashplate Adenylyl Cyclase Activation Assay System with ^125I-cAMP (NEN SMP004B, PerkinElmer Life Sciences Inc., Boston, Mass.), according to the manufacturer's instructions. Cells were rinsed once with dPBS and lifted with Trypsin-EDTA solution (0.05% trypsin/0.53 mM EDTA) as described in the Cell Culture and Membrane Preparation section above. The detached cells were washed twice by centrifugation at 650×g for five minutes in 50 mL dPBS. The cell pellet was then re-suspended in 10 mL dPBS, and the cells were counted with a Coulter Z1 Dual Particle Counter (Beckman Coulter, Fullerton, Calif.). […]
Reactions were incubated for 10 minutes at 37° C. and stopped by addition of 100 μL ice-cold detection buffer. Plates were sealed, incubated overnight at room temperature and counted the next morning on a PerkinElmer TopCount liquid scintillation counter (PerkinElmer Inc., Wellesley, Mass.). The amount of cAMP produced (pmol/well) was calculated based on the counts observed for the samples and cAMP standards, as described in the manufacturer's user manual. […]
Background: Changes in cAMP serve as a functional read-out for many G protein-coupled receptors.

Structures are written as SMILES.

In general, Ki refers to the equilibrium dissociation constant of an inhibitor or competing ligand from its target. With `C[N+]1(CCCCCCCCCNC[C@H](O)c2ccc(O)c3[nH]c(=O)ccc23)C2CC(OC(=O)C(O)(c3cccs3)c3cccs3)CC1C1OC12.C[N+]1(CCCCCCCCCNC[C@H](O)c2ccc(O)c3[nH]c(=O)ccc23)C2CC(OC(=O)C(O)(c3cccs3)c3cccs3)CC1C1OC12.O=C([O-])C(F)(F)F.O=C([O-])C(F)(F)F` (stereo partly drawn) [Example 1, 7-(2-Hydroxy-2,2-dithiophen-2-ylacetoxy)-9-{9-[(R)-2-hydroxy-2-(8-hydroxy-2-oxo-1,2-dihydroquinolin-5-yl)ethylamino]nonyl}-9-methyl-3-oxa-9-azonia-tricyclo[3.3.1.0^2,4]nonane Ditrifluoroacetate], the Ki is less than 0.05 µM.
